Results published in US11655216B2 (priority 2016, dated 2023).
Where two headings read alike, the source gives them in different places.

Columns and labels:
[1] = molecular target: T1, glutathione-S-transferase (GST) tagged LXRbeta LBD (ligand binding domain) (Homo sapiens, UniProt P55055); assay: LanthaScreen TR-FRET Liver X Receptor Coactivator Assay, LXR beta; type: biochemical; conditions: for EC50: LXR beta IP, potency (Inflection Point), compound-induced co-activator recruitment, TR-FRET; for Emax: read-out: LXR beta actiivty at max dose, efficacy (% Emax) in relation to reference dual agonist T0901317
T1 construct: purchased Invitrogen pv4658
T1 sequence (P55055 222-460 limits assumed): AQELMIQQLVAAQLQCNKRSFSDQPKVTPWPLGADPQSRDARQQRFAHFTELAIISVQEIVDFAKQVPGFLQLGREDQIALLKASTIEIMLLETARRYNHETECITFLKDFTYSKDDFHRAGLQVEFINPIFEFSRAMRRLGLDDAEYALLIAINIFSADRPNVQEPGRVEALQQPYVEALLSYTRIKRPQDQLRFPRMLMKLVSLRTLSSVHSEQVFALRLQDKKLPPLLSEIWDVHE
Summary of the method: (§1)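 Compound + LBD (alpha or beta); add fluorescein coactivator peptide/Tb anti-GST Ab mix; incubate RT; read TR-FRET.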

[2] = molecular target: T2, glutathione-S-transferase (GST) tagged LXRalpha LBD (ligand binding domain) (Homo sapiens, UniProt Q13133); assay: biochemical
T2 construct: purchased Invitrogen pv4655
T2 sequence (Q13133 209-447 limits assumed): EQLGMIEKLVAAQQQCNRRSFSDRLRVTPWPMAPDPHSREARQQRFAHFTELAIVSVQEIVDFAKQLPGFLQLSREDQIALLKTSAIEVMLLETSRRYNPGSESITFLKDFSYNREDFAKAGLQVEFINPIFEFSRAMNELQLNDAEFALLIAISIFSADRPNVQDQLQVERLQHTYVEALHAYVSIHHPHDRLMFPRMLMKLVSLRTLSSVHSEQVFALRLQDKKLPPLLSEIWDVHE
Summary of the method: as §1

[3] = efficacy (% Emax) in relation to reference dual agonist T0901317, read-out: LXR alpha actiivty at max dose
[4] = potency (Inflection Point), compound-induced co-activator recruitment, TR-FRET, read-out: LXR alpha IP
[5] = read-out: LXR alpha actiivty at max dose, efficacy (% Emax) in relation to reference dual agonist T0901317
[6] = read-out: LXR alpha actiivty at max dose
[7] = potency (Inflection Point), compound-induced co-activator recruitment, TR-FRET
[8] = LXR alpha IP, potency (Inflection Point), compound-induced co-activator recruitment, TR-FRET

| SMILES | EC50 [1] | Emax [1] | Emax [2, 3] | EC50 [2, 4] | Emax [2, 5] | EC50 ([2]; LXR alpha IP) | Emax [2, 6] | LXR alpha IP [2, 7] | EC50 [2, 8] |
| --- | --- | --- | --- | --- | --- | --- | --- | --- | --- |
| CN(C)C(=O)c1ccc(OCCCC2CC3(CCN(C(=O)C(O)(c4ccccc4)C(F)(F)F)CC3)C2)cc1Cl (single isomer, unassigned) [Example 35-1, 2-chloro-N,N-dimethyl-4-(3-(7-((R or S)-3,3,3-trifluoro-2-hydroxy-2-phenylpropanoyl)-7-azaspiro[3.5]nonan-2-yl)propoxy)benzamide] | 0.069 µM | 61% | 27% | 0.546 µM |  |  |  |  |  |
| CN(C)C(=O)c1ccc(OCCC[C@@H]2CC23CCN(C(=O)[C@@](O)(c2ccccc2)C(F)(F)F)CC3)nc1Cl (single isomer, unassigned) [Example 15-2, 2-chloro-N,N-dimethyl-6-(3-((R or S)-6-((S or R)-3,3,3-trifluoro-2-hydroxy-2-phenylpropanoyl)-6-azaspiro[2.5]octan-1-yl)propoxy)nicotinamide] | 0.065 µM | 115% |  | 0.654 µM | 32% |  |  |  |  |
| CN(C)C(=O)c1ccc(OCCC[C@H]2CC23CCN(C(=O)[C@@](O)(c2ccccc2)C(F)(F)F)CC3)cc1Cl (single isomer, unassigned) [Example 14-1, 2-chloro-N,N-dimethyl-4-(3-((S or R)-6-((S or R)-3,3,3-trifluoro-2-hydroxy-2-phenylpropanoyl)-6-azaspiro[2.5]octan-1-yl)propoxy)benzamide] | 0.065 µM | 99% |  |  |  | 0.765 µM | 9% |  |  |
| CN(C)C(=O)c1ccc(OCCC2CC23CCN(C(=O)C2(c4ccc(Br)cc4)COC2)CC3)cc1Cl (single isomer, unassigned) [Example 12-12, (S or R)-4-(2-(6-(3-(4-bromophenyl)oxetane-3-carbonyl)-6-azaspiro[2.5]octan-1-yl)ethoxy)-2-chloro-N,N-dimethylbenzamide] | 0.081 µM | 60% |  |  | 28% |  |  | No IP |  |
| COc1cccc([C@@](O)(C(=O)N2CCC(CC[C@H](C)COc3ccc(C(N)=O)c(Cl)c3)CC2)C(F)(F)F)c1 (single isomer, unassigned) [Example 24-1, 2-chloro-4-((R or S)-2-methyl-4-(1-((S or R)-3,3,3-trifluoro-2-hydroxy-2-(3-methoxyphenyl)propanoyl)piperidin-4-yl)butoxy)benzamide] | 0.033 µM | 54% | 14% |  |  |  |  | No IP |  |
| COc1cccc(C(O)(C(=O)N2CCC3(CCC(Oc4ccc(C(=O)N(C)C)c(Cl)c4)CC3)CC2)C(F)(F)F)c1 (single isomer, unassigned) [Example 1-1, 2-chloro-N,N-dimethyl-4-(3-((R or S)-3,3,3-trifluoro-2-hydroxy-2-(3-methoxyphenyl)propanoyl)-3-azaspiro[5.5]undecan-9-yloxy)benzamide] | 0.025 µM | 51% |  |  |  | 0.663 µM | 22% |  |  |
| CCC(C)(C(=O)N1CCC2(CC1)C[C@H]2CCOc1ccc(C(=O)N(C)C)c(Cl)c1)c1ccccc1 (single isomer, unassigned) [Example 12-13, 2-chloro-N,N-dimethyl-4-(2-((1S or 1R)-6-(2-methyl-2-phenylbutanoyl)-6-azaspiro[2.5]octan-1-yl)ethoxy)benzamide] | 0.017 µM | 72% |  |  | 26% |  |  |  | 0.505 µM |
| COc1cccc(C(O)(C(=O)N2CCC(C(C)CC(C)COc3ccc(C(=O)N(C)C)c(Cl)c3)CC2)C(F)(F)F)c1 (single isomer, unassigned) [Example 31-2, 2-chloro-N,N-dimethyl-4-(2-methyl-4-(1-((R or S)-3,3,3-trifluoro-2-hydroxy-2-(3-methoxyphenyl)propanoyl)piperidin-4-yl)pentyloxy)benzamide] | 0.019 µM | 38% |  |  | 3% |  |  | No IP |  |
| COc1cccc(C(O)(C(=O)N2CCC(C(F)CCCOc3ccc(C(=O)N(C)C)c(Cl)c3)CC2)C(F)(F)F)c1 (single isomer, unassigned) [Example 21-1, 2-chloro-4-(4-fluoro-4-(1-((R or S)-3,3,3-trifluoro-2-hydroxy-2-(3-methoxyphenyl)propanoyl)piperidin-4-yl)butoxy)-N,N-dimethylbenzamide] | 0.009 µM | 75% | 27% | 0.422 µM |  |  |  |  |  |
| CN(C)C(=O)c1ccc(OCCC[C@H]2CC23CCN(C(=O)[C@](O)(c2ccccc2)C(F)(F)F)CC3)nc1Cl (single isomer, unassigned) [Example 15-1, 2-chloro-N,N-dimethyl-6-(3-((S or R)-6-((R or S)-3,3,3-trifluoro-2-hydroxy-2-phenylpropanoyl)-6-azaspiro[2.5]octan-1-yl)propoxy)nicotinamide] | 0.019 µM | 88% |  |  |  | 0.506 µM | 28% |  |  |
| CN(C)C(=O)c1ccc(OCCCCC2CCN(C(=O)c3c(F)cccc3F)CC2)nc1Cl [Example 3-15, 2-chloro-6-(4-(1-(2,6-difluorobenzoyl)piperidin-4-yl)butoxy)-N,N-dimethylnicotinamide] | 0.328 µM | 80% |  |  | 14% |  |  | No IP |  |
| COc1cccc(C(O)(C(=O)N2CCC(C(F)(F)CCCOc3ccc(C(=O)N(C)C)c(Cl)c3)CC2)C(F)(F)F)c1 (single isomer, unassigned) [Example 22-1, (R or S)-2-chloro-4-(4,4-difluoro-4-(1-(3,3,3-trifluoro-2-hydroxy-2-(3-methoxyphenyl)propanoyl)piperidin-4-yl)butoxy)-N,N-dimethylbenzamide] | 0.007 µM | 67% | 32% | 0.212 µM |  |  |  |  |  |
| CN(C)C(=O)c1ccc(OC[C@H]2C[C@@H]2C2CCN(C(=O)C(C)(C)c3ccccc3)CC2)cc1Cl (single isomer, unassigned) [Example 32-6, 2-chloro-N,N-dimethyl-4-(((1S,2R or 1R,2S)-2-(1-(2-methyl-2-phenylpropanoyl)piperidin-4-yl)cyclopropyl)methoxy) benzamide] | 0.042 µM | 75% |  |  | 33% |  |  |  | 0.631 µM |
| CCOc1cccc([C@@](O)(C(=O)N2CCC(C[C@H]3C[C@@H](Oc4ccc(C(=O)N(C)C)c(Cl)c4)C3)CC2)C(F)(F)F)c1 (single isomer, unassigned) [Example 37-3, 2-chloro-4-((1R,3s)-3-((1-((R or S)-2-(3-ethoxyphenyl)-3,3,3-trifluoro-2-hydroxypropanoyl)piperidin-4-yl)methyl)cyclobutoxy)-N,N-dimethylbenzamide] | 0.017 µM | 124% |  |  | 9% |  |  | No IP |  |
| COc1cccc([C@](O)(C(=O)N2CCC(CC[C@H](C)COc3ccc(C(=O)N(C)C)c(Cl)c3)CC2)C(F)(F)F)c1 (single isomer, unassigned) [Example 23-2, 2-chloro-N,N-dimethyl-4-((S or R)-2-methyl-4-(1-((S or R)-3,3,3-trifluoro-2-hydroxy-2-(3-methoxyphenyl)propanoyl)piperidin-4-yl)butoxy)benzamide] | 0.019 µM | 53% |  |  | 0% |  |  | No IP |  |
| CC1(C)CCN(C(=O)c2ccc(OCCCCC3CCN(C(=O)C(O)(c4ccccc4)C(F)(F)F)CC3)cc2Cl)C1 (single isomer, unassigned) [Example 8-5, (R or S)-1-(4-(4-(3-chloro-4-(3,3-dimethyl-pyrrolidine-1-carbonyl)phenoxy)butyl)piperidin-1-yl)-3,3,3-trifluoro-2-hydroxy-2-phenylpropan-1-one] | 0.018 µM | 27% |  |  | 1% |  |  | No IP |  |
| CN(C)C(=O)c1ccc(OCCCCC2CCN(C(=O)C(O)(c3cccnc3)C(F)(F)F)CC2)nc1Cl (stereo not drawn) [Example 6-2, 2-chloro-N,N-dimethyl-6-(4-(1-(3,3,3-trifluoro-2-hydroxy-2-(pyridin-3-yl)propanoyl)piperidin-4-yl)butoxy)nicotinamide] | 0.008 µM | 90% |  |  | 74% |  |  |  | 1.23 µM |
| CNC(=O)c1ccc(OCC[C@@H]2C[C@@H]2C2CCN(C(=O)[C@](O)(c3cccc(OC)c3)C(F)(F)F)CC2)cc1Cl (single isomer, unassigned) [Example 10-5, 2-chloro-N-methyl-4-(2-((1S,2R or 1R, 2S)-2-(1-((R or S)-3,3,3-trifluoro-2-hydroxy-2-(3-methoxyphenyl)propanoyl)piperidin-4-yl)cyclopropyl)ethoxy) benzamide] | 0.007 µM | 75% |  |  | 13% |  |  |  | 0.209 µM |
